Data on 5 compounds can be found in patent publication US12662479B2 (Foghorn Therapeutics Inc., priority 2020, dated 2026).

Experiment [1] concerns the target T1, HiBit-BRM fusion protein (Homo sapiens, UniProt P51531).
T1 construct: expressed in transfected cells
The experiment in a line: HiBiT-BRM cell-based degradation assay (Nano-Glo HiBiT Lytic Detection, 24 h). The settings on record: HeLa cells expressing HiBiT-BRM; for DC50: read-out: BRM HiBit Degradation IC50; for BRM HiBit Degradation Maximum measured: top dose 30 μM. In short, it runs like this:
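HeLa cells stably expressing HiBiT-BRM were dosed with compounds (10-point 3-fold dilutions, 30 μM final top dose, duplicate) for 24 h. HiBiT signal was read by lytic LgBiT complementation luminescence. Percent degradation was normalised to DMSO (high control) and 2 μM of a reference BRM/BRG1 degrader (low control).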
(With HiBiT, luminescence reflects the tagged protein that the partner subunit can reach.)

Experiment [2] deals with T2, HiBit-BRG1 fusion protein (Homo sapiens, UniProt P51532).
T2 construct: expressed in transfected cells
Briefly: HiBiT-BRG1 cell-based degradation assay (Nano-Glo HiBiT Lytic Detection, 24 h). Particulars: HeLa cells expressing HiBit-BRG1 and LgBit; for DC50: read-out: BRG1 HiBit Degradation IC50; for Dmax: HeLa, top dose 30 μM, read-out: BRG1 HiBit Degradation Maximum measured. An outline of the steps: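 Stable HeLa line expressing HiBiT-BRG1 and LgBiT, seeded at 5000 cells/well; luminescence read after lytic Nano-Glo HiBiT reagent and 10 min shaking at RT. % degradation normalised between DMSO (high control) and 2 μM reference BRM/BRG1 degrader (low control).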

Where a name gives a salt, the structure may show the parent alone.

T1 sequence (P51531 whole entry, the tested form may be a part): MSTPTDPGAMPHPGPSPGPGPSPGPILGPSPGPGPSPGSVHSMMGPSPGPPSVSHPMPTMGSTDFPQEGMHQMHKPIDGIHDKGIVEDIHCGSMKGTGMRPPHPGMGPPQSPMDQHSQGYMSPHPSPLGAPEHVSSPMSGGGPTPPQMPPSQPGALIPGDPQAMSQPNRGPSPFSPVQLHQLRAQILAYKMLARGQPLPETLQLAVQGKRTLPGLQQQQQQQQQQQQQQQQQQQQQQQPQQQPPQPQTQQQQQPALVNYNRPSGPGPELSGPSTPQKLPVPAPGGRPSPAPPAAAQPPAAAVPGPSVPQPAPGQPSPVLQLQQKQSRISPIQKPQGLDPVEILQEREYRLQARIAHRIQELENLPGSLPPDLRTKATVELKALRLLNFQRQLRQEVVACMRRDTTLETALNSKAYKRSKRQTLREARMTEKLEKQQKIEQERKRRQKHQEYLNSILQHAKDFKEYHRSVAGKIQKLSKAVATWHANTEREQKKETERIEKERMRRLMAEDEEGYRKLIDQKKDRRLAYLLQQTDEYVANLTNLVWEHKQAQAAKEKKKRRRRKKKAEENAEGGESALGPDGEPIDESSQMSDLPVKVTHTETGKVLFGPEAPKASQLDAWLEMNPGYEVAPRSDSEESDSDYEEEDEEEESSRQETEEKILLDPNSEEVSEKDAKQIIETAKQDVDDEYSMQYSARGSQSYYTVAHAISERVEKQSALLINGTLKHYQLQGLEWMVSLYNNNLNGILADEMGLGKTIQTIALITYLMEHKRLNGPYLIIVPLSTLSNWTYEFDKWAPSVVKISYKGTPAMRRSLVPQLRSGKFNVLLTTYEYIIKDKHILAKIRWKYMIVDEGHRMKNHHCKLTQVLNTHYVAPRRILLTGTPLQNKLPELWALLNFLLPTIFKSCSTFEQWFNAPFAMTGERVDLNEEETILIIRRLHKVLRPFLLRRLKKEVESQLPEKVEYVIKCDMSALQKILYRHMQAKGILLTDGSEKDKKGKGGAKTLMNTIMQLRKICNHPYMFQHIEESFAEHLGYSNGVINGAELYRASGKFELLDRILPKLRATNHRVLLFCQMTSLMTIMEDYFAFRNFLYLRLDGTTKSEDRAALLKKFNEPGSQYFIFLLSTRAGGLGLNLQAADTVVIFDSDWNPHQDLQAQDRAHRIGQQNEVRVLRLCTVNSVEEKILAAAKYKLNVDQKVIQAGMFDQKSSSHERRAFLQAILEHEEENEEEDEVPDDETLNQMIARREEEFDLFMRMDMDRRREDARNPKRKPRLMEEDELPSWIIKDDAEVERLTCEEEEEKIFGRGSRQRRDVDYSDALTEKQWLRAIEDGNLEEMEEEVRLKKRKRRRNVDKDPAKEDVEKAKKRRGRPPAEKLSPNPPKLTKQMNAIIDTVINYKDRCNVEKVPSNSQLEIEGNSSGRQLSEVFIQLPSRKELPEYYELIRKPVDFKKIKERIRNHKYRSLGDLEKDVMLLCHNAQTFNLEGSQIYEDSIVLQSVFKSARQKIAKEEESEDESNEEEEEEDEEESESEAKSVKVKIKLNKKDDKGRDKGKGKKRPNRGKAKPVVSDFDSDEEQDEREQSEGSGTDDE
T2 sequence (P51532 whole entry, the tested form may be a part): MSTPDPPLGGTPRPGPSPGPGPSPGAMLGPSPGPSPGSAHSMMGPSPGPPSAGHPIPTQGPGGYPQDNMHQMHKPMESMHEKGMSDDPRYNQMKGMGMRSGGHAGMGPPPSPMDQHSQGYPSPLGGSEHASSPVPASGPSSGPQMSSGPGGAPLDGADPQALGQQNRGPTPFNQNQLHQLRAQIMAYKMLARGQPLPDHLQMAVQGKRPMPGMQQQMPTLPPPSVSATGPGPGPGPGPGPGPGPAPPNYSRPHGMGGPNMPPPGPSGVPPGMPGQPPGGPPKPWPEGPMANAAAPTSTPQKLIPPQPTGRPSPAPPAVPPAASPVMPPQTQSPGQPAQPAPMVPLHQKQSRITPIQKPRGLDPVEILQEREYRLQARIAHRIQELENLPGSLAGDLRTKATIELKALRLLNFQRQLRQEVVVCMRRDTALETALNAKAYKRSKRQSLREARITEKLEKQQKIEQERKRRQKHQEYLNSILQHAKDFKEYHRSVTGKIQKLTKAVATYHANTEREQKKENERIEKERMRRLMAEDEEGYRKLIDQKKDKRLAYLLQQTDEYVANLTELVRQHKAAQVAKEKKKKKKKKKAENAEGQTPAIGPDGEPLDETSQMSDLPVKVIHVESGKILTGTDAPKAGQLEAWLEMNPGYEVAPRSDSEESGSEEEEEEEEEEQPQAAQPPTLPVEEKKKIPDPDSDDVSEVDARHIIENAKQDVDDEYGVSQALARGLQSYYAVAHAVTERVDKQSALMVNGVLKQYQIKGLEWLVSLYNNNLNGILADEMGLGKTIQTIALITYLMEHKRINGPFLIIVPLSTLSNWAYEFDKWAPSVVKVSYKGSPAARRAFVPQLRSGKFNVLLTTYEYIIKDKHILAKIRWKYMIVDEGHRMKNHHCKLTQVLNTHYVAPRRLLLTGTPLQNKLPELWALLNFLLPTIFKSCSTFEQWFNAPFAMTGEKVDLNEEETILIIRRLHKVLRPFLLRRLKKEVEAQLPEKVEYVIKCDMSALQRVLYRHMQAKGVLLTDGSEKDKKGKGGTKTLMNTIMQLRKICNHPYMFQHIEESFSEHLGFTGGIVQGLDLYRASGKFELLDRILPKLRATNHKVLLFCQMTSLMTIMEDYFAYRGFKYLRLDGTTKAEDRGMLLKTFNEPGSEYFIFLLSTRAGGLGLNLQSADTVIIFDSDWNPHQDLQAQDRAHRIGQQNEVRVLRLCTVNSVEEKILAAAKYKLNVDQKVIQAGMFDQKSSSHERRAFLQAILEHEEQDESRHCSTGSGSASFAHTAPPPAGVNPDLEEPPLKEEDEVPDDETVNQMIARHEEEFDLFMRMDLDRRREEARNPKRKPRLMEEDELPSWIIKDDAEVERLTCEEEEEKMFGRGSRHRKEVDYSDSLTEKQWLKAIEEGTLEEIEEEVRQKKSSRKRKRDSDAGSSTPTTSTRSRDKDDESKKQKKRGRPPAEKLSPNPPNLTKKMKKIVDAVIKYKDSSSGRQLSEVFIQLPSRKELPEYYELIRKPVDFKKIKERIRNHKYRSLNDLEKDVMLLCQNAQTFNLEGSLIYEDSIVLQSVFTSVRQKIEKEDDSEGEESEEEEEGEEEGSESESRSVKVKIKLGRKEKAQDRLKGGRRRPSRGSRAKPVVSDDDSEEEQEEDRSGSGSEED

In the case of `CS(=O)(=O)n1ccc(C(=O)N[C@@H](COCc2ccc(CNC(=O)C3CCN(CCOc4ccc5c(c4)C(=O)N(C4CCC(=O)NC4=O)C5=O)CC3)cc2)C(=O)Nc2nc(-c3ccccc3)cs2)c1` (stereo partly drawn) [Compound 216, 1-(2-[[2-(2,6-dioxopiperidin-3-yl)-1,3-dioxoisoindol-5-yl]oxy]ethyl)-N-[(4-[[(2S)-2-[(1-methanesulfonylpyrrol-3-yl)formamido]-2-[(4-phenyl-1,3-thiazol-2-yl)carbamoyl]ethoxy]methyl]phenyl)methyl]piperidine-4-carboxamide; formic acid], in experiment [1], the DC50 lay in the range of 100 to 1000 nM and the “BRM HiBit Degradation Maximum measured” value is on record as “A (‘A’ = Maximum degradation >75%)”. In experiment [2], the DC50 was in the range of 100 to 1000 nM and the Dmax is over 75%.
For `CS(=O)(=O)n1ccc(C(=O)N[C@@H](COCc2ccc(CNC(=O)CCOCCOCCOc3ccc4c(c3)C(=O)N(C3CCC(=O)NC3=O)C4=O)cc2)C(=O)Nc2nc(-c3ccccc3)cs2)c1` (stereo partly drawn) [Compound 217, 3-[2-(2-[[2-(2,6-dioxopiperidin-3-yl)-1,3-dioxoisoindol-5-yl]oxy]ethoxy)ethoxy]-N-[(4-[[(2S)-2-[(1-methanesulfonylpyrrol-3-yl)formamido]-2-[(4-phenyl-1,3-thiazol-2-yl)carbamoyl]ethoxy]methyl]phenyl)methyl]propanamide], in experiment [1], the DC50 lay within 100 to 1000 nM; the “BRM HiBit Degradation Maximum measured” value is “B (‘B’ = Maximum degradation ≥50% and ≤75%)”. Moreover, in experiment [2], the DC50 fell in the range of 100 to 1000 nM and the Dmax was 50 to 75%.
Turning to `Cc1ncsc1-c1ccc(CNC(=O)[C@@H]2C[C@@H](O)CN2C(=O)[C@@H](NC(=O)CCCCCCCNC(=O)CCCOCC[C@H](NC(=O)c2ccn(S(C)(=O)=O)c2)C(=O)Nc2nc(-c3ccccc3)cs2)C(C)(C)C)cc1` [Compound 218, (2S,4R)-4-hydroxy-1-[(2S)-2-(8-[4-[(3S)-3-[(1-methanesulfonylpyrrol-3-yl)formamido]-3-[(4-phenyl-1,3-thiazol-2-yl)carbamoyl]propoxy]butanamido]octanamido)-3,3-dimethylbutanoyl]-N-[[4-(4-methyl-1,3-thiazol-5-yl)phenyl]methyl]pyrrolidine-2-carboxamide], in experiment [1], the DC50 was over 10000 nM and the “BRM HiBit Degradation Maximum measured” value is “C (‘C’ = Maximum degradation <50%)”. Moreover, in experiment [2], the DC50 is over 10000 nM and the Dmax was under 50%.
As for `CS(=O)(=O)n1ccc(C(=O)N[C@@H](CCOCCCC(=O)N2CCN(CCOc3ccc4c(c3)C(=O)N(C3CCC(=O)NC3=O)C4=O)CC2)C(=O)Nc2nc(-c3ccccc3)cs2)c1` (stereo partly drawn) [Compound 219, (2S)-4-[4-[4-(2-[[2-(2,6-dioxopiperidin-3-yl)-1,3-dioxoisoindol-5-yl]oxy]ethyl)piperazin-1-yl]-4-oxobutoxy]-2-[(1-methanesulfonylpyrrol-3-yl)formamido]-N-(4-phenyl-1,3-thiazol-2-yl)butanamide], in experiment [1], the DC50 was over 10000 nM and the “BRM HiBit Degradation Maximum measured” value is given as “C (‘C’ = Maximum degradation <50%)”. Further, in experiment [2], the DC50 is over 10000 nM and the Dmax was under 50%.
With `CS(=O)(=O)n1ccc(C(=O)N[C@@H](CCOCCCC(=O)N2CCC(CN3CCN(c4ccc5c(c4)C(=O)N(C4CCC(=O)NC4=O)C5=O)CC3)CC2)C(=O)Nc2nc(-c3ccccc3)cs2)c1` (stereo partly drawn) [Compound 220, N-((2S)-4-(4-(4-((4-(2-(2,6-dioxopiperidin-3-yl)-1,3-dioxoisoindolin-5-yl)piperazin-1-yl)methyl)piperidin-1-yl)-4-oxobutoxy)-1-oxo-1-((4-phenylthiazol-2-yl)amino)butan-2-yl)-1-(methylsulfonyl)-1H-pyrrole-3-carboxamide formate], in experiment [1], the DC50 was over 10000 nM and the “BRM HiBit Degradation Maximum measured” value is given as “C (‘C’ = Maximum degradation <50%)”. In addition, in experiment [2], the DC50 was over 10000 nM and the Dmax is under 50%.
